From patent US20060141473A1, “Erk7 and erk8, novel diagnostic markers for cancer” (priority 2003, published 2006)
Residues, ends and D or L forms follow the SMILES beside them. *: point of attachment. Cbz = O=C(OCc1ccccc1)*

Experiments:
[1] = tested on: MAPK(ERK1/2); conditions: cells expressing MAPK(ERK1/2); cited from earlier work
[2] = tested on: ERK7/8; conditions: cited from earlier work
[3] = tested on: ERα; experiment: ERα protein levels by immunoblot in transfected BHK cells treated with proteasome inhibitor; format: cell-based, hamster; conditions: presence and absence of estradiol
Experimental: BHK cells were transfected in 10 mm dishes with calcium phosphate and 1 μg of wild type or mutant ERα or FLAG-IκBα or HA-SF1 or HA-AR construct, 5 μg of a construct encoding a wild type or mutant kinase or vector control. At 8 h post transfection, the cells were washed with phosphate-buffered saline (PBS) and placed in Dulbecco's modified Eagle's medium (DMEM) with 5% fetal calf serum (FCS).

[4] = tested on: ERα-regulated transcription; experiment: ERE-luciferase transcriptional analysis in MCF-7 stable lines; format: cell-based, human
[5] = target: T1, bacterially expressed ERK7 (Rattus norvegicus, UniProt Q9Z2A6); experiment: ERK7 kinase assay, phosphorylation of GST-MBPtide, HRP-ELISA; format: biochemical; conditions: purified ERK7 5 nM
T1 construct: HIS-tag; made in house; host or cells: bacteria
T1 sequence (Q9Z2A6 1-547): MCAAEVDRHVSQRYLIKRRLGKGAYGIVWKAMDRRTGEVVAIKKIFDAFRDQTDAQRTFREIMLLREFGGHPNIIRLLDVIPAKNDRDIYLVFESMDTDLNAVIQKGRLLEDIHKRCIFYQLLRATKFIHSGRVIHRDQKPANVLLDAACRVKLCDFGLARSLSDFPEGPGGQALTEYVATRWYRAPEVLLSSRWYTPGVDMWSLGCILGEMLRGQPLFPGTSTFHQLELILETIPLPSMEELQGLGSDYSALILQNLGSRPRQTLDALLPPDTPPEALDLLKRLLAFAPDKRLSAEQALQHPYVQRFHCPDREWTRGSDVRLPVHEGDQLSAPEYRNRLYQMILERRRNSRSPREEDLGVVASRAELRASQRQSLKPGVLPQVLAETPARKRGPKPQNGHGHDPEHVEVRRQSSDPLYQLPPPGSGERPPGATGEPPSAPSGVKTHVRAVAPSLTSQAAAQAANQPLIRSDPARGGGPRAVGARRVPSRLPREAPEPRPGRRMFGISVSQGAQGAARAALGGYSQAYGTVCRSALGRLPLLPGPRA
Experimental: FIG. 1: is a graph representing the determination of the KM of ATP for bacterially expressed ERK7. Purified ERK7 (5 nM) was incubated in the presence of increasing ATP concentrations. The concentration of ATP supporting maximal velocity of the kinase reaction is 1 mM. The concentration of ATP supporting half-maximal velocity (KM) is ˜100 μM. Background is the measured signal from reactions carried out in the presence of 200 mM EDTA, which eliminates kinase activity. The background has not been subtracted from the ERK7 signal. Phosphorylation of the immobilized GST-MBPtide was detected using the HRP-ELISA as described in Example 1.
Kinase assays were developed to measure the activity of rat ERK7 and human ERK8. Purified, recombinant ERK7 and ERK8 were obtained by introducing a HIS-tag in frame with the coding sequence of the kinases, expressing the proteins in bacteria and purifying the proteins over a NiNTA resin (Qiagen, Valencia, Calif.). […]
The kinase assays were performed in a 96 well format according to the following procedure. […] All assays measured the initial velocity of reaction. […] HRP activity was measured using Western Lightning Chemiluminescence Reagent (NEL102, PerkinElmer Life Sciences) according to manufacturer's protocol. Maximum and minimum activity is the relative luminescence detected in the presence of vehicle and 200 mM EDTA, respectively. […]

C=C1[C@@H](O)[C@@H]2O[C@]3(CC[C@H](/C=C/[C@@H](C)[C@@H]4CC(C)=C[C@@]5(O[C@H](C[C@@](C)(O)C(=O)O)CC[C@H]5O)O4)O3)CC[C@H]2O[C@@H]1[C@@H](O)C[C@H](C)[C@H]1O[C@@]2(CCCCO2)CC[C@H]1C [okadaic acid]
effect on amount of TEY phosphorylated MAPK(ERK1/2) [1]: increases | effect on ERK7/8 TEY phosphorylation [2]: no effect

CC(C)C[C@@H](C=O)NC(=O)[C@H](CC(C)C)NC(=O)[C@H](CC(C)C)NC(=O)OCc1ccccc1 [MG132] (Cbz-Leu-Leu-Leu-aldehyde)
effect on ERα protein levels [3]: increased ERα protein levels | effect on transcriptional response ([4]; MCF-7 cells stably expressing K43A-ERK7, ERE-luciferase reporter): not affected | increase of transcriptional response to estradiol ([4]; MCF-7 control (vector) stable cells, ERE-luciferase reporter): ~3 fold

Nc1ncnc2c1ncn2[C@@H]1O[C@H](COP(=O)(O)OP(=O)(O)OP(=O)(O)O)[C@@H](O)[C@H]1O [ATP]
concentration supporting maximal velocity of the kinase reaction [5]: 1 mM | Km ([5]; increasing ATP, read-out: KM (concentration supporting half-maximal velocity)): ~100 µM
